Experimental data published in paper PMC9782539, “Synthesis, Characterization and Biological Evaluation of Benzothiazole–Isoquinoline Derivative” (Molecules, 2022).

Assays:
MAO–B = molecular target: T1, MAO–B (Rattus norvegicus, UniProt P19643); experiment: MAO–B inhibitory activity (enzyme pre-incubated with chlorgiline); assay type: biochemical
T1 construct: the obtained SD rat liver mitochondrial concentrate was the experimental monoamine oxidase stock solution; from tissue; host or cells: male SD rat liver mitochondria
T1 sequence (P19643 1-520): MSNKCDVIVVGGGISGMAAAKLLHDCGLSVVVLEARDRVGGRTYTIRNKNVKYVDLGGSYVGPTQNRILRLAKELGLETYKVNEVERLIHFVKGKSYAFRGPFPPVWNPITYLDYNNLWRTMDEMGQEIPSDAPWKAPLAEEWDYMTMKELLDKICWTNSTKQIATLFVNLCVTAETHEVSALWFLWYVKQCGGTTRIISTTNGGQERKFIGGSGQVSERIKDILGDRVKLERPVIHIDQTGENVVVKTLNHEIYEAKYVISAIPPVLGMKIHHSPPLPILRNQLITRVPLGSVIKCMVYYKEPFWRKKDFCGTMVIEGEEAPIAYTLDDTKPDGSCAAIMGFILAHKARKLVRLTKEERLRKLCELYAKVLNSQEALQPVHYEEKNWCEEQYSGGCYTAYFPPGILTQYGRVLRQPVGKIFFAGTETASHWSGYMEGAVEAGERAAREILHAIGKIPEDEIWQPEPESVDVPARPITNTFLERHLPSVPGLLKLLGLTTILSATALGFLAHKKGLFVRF
Experimental: (§1) Male SD rats were sacrificed by decapitation, operated on ice, their livers were removed, and the liver surface was washed with precooled phosphate buffer. The liver was cut into pieces, and after washing (using PBS), 20 mL of 0.3 M sucrose buffer was added for homogenization. After fully homogenized, it was balanced by a tray balance. Low–temperature differential centrifugation was performed, and the obtained SD rat liver mitochondrial concentrate was the experimental monoamine oxidase stock solution, and was stored in a −80 °C refrigerator.
(§2) Added 25 µL of enzyme dilution solution and 25 µL of test derivatives (control group plus rasagiline, blank group plus 10% DMSO) to 96–well plate, incubated at 37 °C for 1 h, then 120 µL of substrate was added, 80 µL of chromogenic solution was added, incubated at 37 °C for 30 min, and its absorbance measured at 490 nm. In addition, in order to exclude the influence of protein, a protein control group was established, only the enzyme dilution was added, and the rest were replaced with PBS, and the absorbance value was detected at a wavelength of 490 nm. The inhibition rate of each concentration was substituted into the calculation software GraphPad Prism 8 to calculate the IC50 value.
(§3) The inhibition rate of each concentration was substituted into the calculation software GraphPad Prism 8 to calculate the IC50 value.

AChE = AChE (Homo sapiens, UniProt P22303); experiment: biochemical; assay type: biochemical
Sequence of AChE (P22303 32-614): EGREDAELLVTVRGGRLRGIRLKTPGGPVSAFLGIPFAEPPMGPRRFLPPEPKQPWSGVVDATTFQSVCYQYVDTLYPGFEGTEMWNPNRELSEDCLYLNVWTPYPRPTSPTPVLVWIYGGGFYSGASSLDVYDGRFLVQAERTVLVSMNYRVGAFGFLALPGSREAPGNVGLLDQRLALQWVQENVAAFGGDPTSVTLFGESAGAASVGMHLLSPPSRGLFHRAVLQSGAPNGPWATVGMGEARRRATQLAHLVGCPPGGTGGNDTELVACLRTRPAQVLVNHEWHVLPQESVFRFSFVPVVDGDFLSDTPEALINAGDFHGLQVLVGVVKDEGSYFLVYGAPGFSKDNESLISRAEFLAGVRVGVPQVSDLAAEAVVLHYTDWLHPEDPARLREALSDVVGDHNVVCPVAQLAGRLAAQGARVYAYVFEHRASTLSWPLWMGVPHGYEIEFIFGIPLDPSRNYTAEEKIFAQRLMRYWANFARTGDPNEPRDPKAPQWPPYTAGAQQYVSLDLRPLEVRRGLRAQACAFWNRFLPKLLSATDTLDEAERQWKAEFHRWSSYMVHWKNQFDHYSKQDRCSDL
Experimental: (§4) Each concentration was tested three times in parallel, and 96 empty plates were taken, and 20 µL of the test sample or positive drug (10% DMSO was added to the blank control), 40 µL of AChE or BuChE (0.2 U/mL) and 100 µL of DTNB (0.001 mol/L) were added in turn, mixed well and incubated in a constant temperature water bath at 37 °C for 15 min.

BuChE = BuChE (Homo sapiens, UniProt P06276); experiment: biochemical; assay type: biochemical
Sequence of BuChE (P06276 29-602): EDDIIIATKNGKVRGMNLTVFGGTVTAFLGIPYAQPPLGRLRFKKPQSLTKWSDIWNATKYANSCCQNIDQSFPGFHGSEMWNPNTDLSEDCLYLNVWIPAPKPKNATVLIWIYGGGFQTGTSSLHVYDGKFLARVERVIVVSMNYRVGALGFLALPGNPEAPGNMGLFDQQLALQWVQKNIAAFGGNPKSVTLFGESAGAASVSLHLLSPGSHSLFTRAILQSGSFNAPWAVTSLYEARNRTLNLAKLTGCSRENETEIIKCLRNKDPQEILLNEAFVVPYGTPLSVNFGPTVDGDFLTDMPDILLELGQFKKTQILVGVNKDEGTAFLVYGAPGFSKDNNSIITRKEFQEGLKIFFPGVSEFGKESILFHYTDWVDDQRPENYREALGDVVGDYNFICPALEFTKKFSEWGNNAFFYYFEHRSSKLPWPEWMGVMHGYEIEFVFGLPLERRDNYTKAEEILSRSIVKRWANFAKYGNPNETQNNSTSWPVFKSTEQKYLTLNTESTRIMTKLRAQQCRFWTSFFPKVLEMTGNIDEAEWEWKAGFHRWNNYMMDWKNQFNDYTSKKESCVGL
Experimental: as §4

ICR male mice = experiment: Forced swimming test (FST); assay type: in vivo; details: i.p., 30 mg/kg; for Duration of Immobility: 30 min after administration, mean ± SEM (n = 8); for DID (%) percentage decrease in immobility duration: vs control
Experimental: Pharmacological experiments of antidepressant activity used FST in mice, fluoxetine hydrochloride was used as a positive control, and the vehicle solvent PFG–400 was used as a blank control. The experiment used ICR male mice (20 ± 2 g). Six benzothiazole–quinoline derivatives were dissolved in polyethylene glycol–400, and 30 min after administration (i.p., 30 mg/kg), the mice were each placed in a glass cylinder, recording the time of immobility. Duration of immobility outcomes is expressed as mean ± SEM. The t-test was used to make comparisons between groups.

MAO–A = molecular target: T2, MAO–A (Rattus norvegicus, UniProt P21396); experiment: MAO–A inhibitory activity (enzyme pre-incubated with pargyline); assay type: biochemical
T2 construct: the obtained SD rat liver mitochondrial concentrate was the experimental monoamine oxidase stock solution; from tissue; host or cells: male SD rat liver mitochondria
T2 sequence (P21396 1-526): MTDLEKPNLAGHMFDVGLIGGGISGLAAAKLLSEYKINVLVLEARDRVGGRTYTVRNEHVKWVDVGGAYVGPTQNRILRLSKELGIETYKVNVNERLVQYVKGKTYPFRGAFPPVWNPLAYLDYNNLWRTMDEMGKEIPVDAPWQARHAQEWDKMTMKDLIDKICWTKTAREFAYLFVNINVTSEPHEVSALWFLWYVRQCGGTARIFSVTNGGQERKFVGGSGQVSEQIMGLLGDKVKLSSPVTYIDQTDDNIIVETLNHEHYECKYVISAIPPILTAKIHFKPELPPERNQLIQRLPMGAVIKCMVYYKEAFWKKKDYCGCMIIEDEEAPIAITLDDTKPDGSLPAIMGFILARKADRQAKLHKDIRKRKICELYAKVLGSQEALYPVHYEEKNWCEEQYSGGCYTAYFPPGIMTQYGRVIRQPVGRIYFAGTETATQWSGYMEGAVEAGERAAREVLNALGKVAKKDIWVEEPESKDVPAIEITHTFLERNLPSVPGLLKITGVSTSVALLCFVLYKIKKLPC
Experimental: as §1, §2, §3

MAO = MAO inhibitory activity (Holts method, rat liver mitochondrial enzyme); assay type: biochemical
Experimental: as §1, §2

Cytotoxicity, MTT method = assay type: cell-based; details: mouse, L929 cells, 0–100 μM, read-out: cell viability (MTT)
Experimental: L929 (Shanghai Cell Bank, Chinese Academy of Sciences) cells were cultured in 10% fetal bovine serum: penicillin–streptomycin solution: MEM mixed medium with serum–free medium (10:1:90), and subcultured in a 5% carbon dioxide cell incubator at 37 °C, and the medium changed every other day.
In this experiment, L929 cells in the logarithmic growth phase were selected, and the cell density was adjusted to 2 × 10^4 cells per well. The cells were seeded in 96–well plates, and the 96–well plates seeded with cells were cultured in a 37 °C 5% carbon dioxide cell incubator. After 24 h, different concentrations of the test compound medium (6.5, 12.5, 25, 50, 100 μM) were added, and the blank group was added with drug–free medium, shaken gently, and placed at 37 °C 5%. The cells were cultured in a carbon dioxide cell incubator for 24 h, and each concentration was replicated 6 times. After 24 h, 20 μL of […] MTT solution (prepared in PBS with pH = 7.6) was added in the dark, and cultured in the cell incubator for another 4 h. After 4 h, the 96–well plate was taken out and the original medium was discarded. Added 160 μL DMSO, put it on a shaker and mixed well for about 10 min, used a microplate reader to measure its absorbance at 490 nm, recorded the results and analyzed.

Compound	IC50 (MAO–B)	Inhibition Rate (%) MAO–B (MAO–B)	IC50 (AChE)	Inhibition Rate (%) AChE (AChE)	IC50 (BuChE)	Inhibition Rate (%) BuChE (BuChE)	Duration of Immobility (ICR male mice)	DID (%) percentage decrease in immobility duration (ICR male mice)	Inhibition Rate (%) MAO–A (MAO–A)	IC50 (MAO)	Inhibition Rate of MAO (%) (MAO)	viability at 24 h (Cytotoxicity, MTT method)
O=C(CN1CCc2ccccc2[C@H]1c1ccccc1)Nc1nc2cc(Cl)ccc2s1 [Compound 4b, (R)–N–(5–chlorobenzo[d]thiazol–2–yl)–2–(1–phenyl–3,4–dihydroisoquinolin–2(1H)–yl)acetamide]	40.8 ± 2.67 µM	39.15%	> 150 µM	4.42%	17.6 ± 1.78 µM	69.44%	85.7 ± 8.1 s	51.98%	3.01%	38.8 ± 3.76 µM	39.27%	> 90%
Cc1cccc2sc(NC(=O)CN3CCc4ccccc4[C@H]3c3ccccc3)nc12 [Compound 4g, (R)–N–(4–methylbenzo[d]thiazol–2–yl)–2–(1–phenyl–3,4–dihydroisoquinolin–2(1H)–yl)acetamide]	12.1 ± 3.47 µM	51.39%	> 150 µM	1.10%	30.3 ± 4.59 µM	72.64%	69.0 ± 15.7 s	61.32%	9.03%	14.8 ± 5.45 µM	57.11%	> 90%
Cc1ccc2nc(NC(=O)CN3CCc4ccccc4[C@H]3c3ccccc3)sc2c1 [Compound 4i, (R)–N–(6–methylbenzo[d]thiazol–2–yl)–2–(1–phenyl–3,4–dihydroisoquinolin–2(1H)–yl)acetamide]	16.5 ± 3.59 µM	61.17%	> 150 µM	2.21%	19.2 ± 2.72 µM	47.68%	83.8 ± 13.6 s	53.05%	2.51%	18.5 ± 1.69 µM	26.46%	> 90%
O=C(CN1CCc2ccccc2[C@H]1c1ccccc1)Nc1nc2ccc(Br)cc2s1 [Compound 4f, (R)–N–(6–bromobenzo[d]thiazol–2–yl)–2–(1–phenyl–3,4–dihydroisoquinolin–2(1H)–yl)acetamide]	47.6 ± 1.82 µM	46.49%	> 150 µM	1.10%	> 150 µM	32.32%	71.7 ± 4.9 s	59.83%	15.04%	41.8 ± 2.94 µM	24.15%	> 90%
O=C(CN1CCc2ccccc2[C@H]1c1ccccc1)Nc1nc2ccc(Cl)cc2s1 [Compound 4c, (R)–N–(6–chlorobenzo[d]thiazol–2–yl)–2–(1–phenyl–3,4–dihydroisoquinolin–2(1H)–yl)acetamide]	9.13 ± 4.17 µM	48.45%	> 150 µM	1.10%	> 150 µM	68.80%	77.0 ± 18.3 s	56.84%	12.03%	45.9 ± 2.66 µM	21.59%	> 90%
